Experimental findings from patent US8956160B2, “Device and method for delivering an oral care agent” (Ranir, LLC, priority 2002, dated 2015) are described below.

The nature of this series: Accelerated H2O2 stability study with individual ingredients of backing, anchor and oral care layers. Type of series: physicochemical. As to conditions: 40° C./75% RH, up to 9 weeks. As for the experimental part: Accelerated H2O2 stability studies were conducted at 40° C./75% relative humidity (RH) with the individual ingredients used to form the backing, anchor and oral care layers as described in Example 1.

Each structure is given as a SMILES string.

Consider `OO` [Device H2O2, hydrogen peroxide], for which the H2O2 stability entry is listed as “good stability”.
